We go through 7 compounds from EP0238178B1, “Novel derivatives of erythromycylamine” (ELI LILLY AND COMPANY, priority 1986, dated 1987).

The structures appear in SMILES notation. Like-named read-outs stand apart in the source and are kept apart here. Bounds are passed on as bounds.

Common to all, as to test: Experimental bacterial infection in mice, ED50
Holding throughout (format): in vivo

One test concerns Staphylococcus aureus. Particulars: Staphylococcus aureus, two doses, dose protecting 50% of animals. The protocol: (§1) The new derivatives of this invention have also shown in vivo antimicrobial activity against experimental bacterial infections. When two doses of test compound were administered to mice in experimental infections, the activity observed was measured as an EDso value [effective dose in mg/kg to protect 50% of the test animals: see Warren Wick, et al., J. Bacteriol. 81, 233-235 (1961)].

The subject of the next test is Streptococcus pneumoniae. Particulars: Streptococcus pneumoniae, two doses, dose protecting 50% of animals. The protocol:
as §1

The subject of another test is Streptococcus pyogenes. Conditions: Streptococcus pyogenes, two doses, dose protecting 50% of animals. The protocol:
as §1

The mark [1] stands for this setting: sc, subcutaneous, read-out: Subcutaneous ED50.

In the case of `CCOC(=O)C1CC1CN[C@@H]1[C@H](C)[C@@H](O)[C@](C)(O)[C@@H](CC)OC(=O)[C@H](C)[C@@H](O[C@H]2C[C@@](C)(OC)[C@@H](O)[C@H](C)O2)[C@H](C)[C@@H](O[C@@H]2O[C@H](C)C[C@H](N(C)C)[C@H]2O)[C@](C)(O)C[C@H]1C` (stereo partly drawn) [Compound 27, 9-Deoxo-9-[[[2-(ethoxycarbonyl)cyclopropyl]methyl]amino]erythromycin], the ED50 with Staphylococcus aureus (po, read-out: Oral ED50) was found to be 50 mg/kg; in the test on Streptococcus pneumoniae (po, read-out: Oral ED50), 30.4 mg/kg; in the test with Streptococcus pyogenes (po, read-out: Oral ED50), 27.1 mg/kg.

Turning to `CC[C@H]1OC(=O)[C@H](C)[C@@H](O[C@H]2C[C@@](C)(OC)[C@@H](O)[C@H](C)O2)[C@H](C)[C@@H](O[C@@H]2O[C@H](C)C[C@H](N(C)C)[C@H]2O)[C@](C)(O)C[C@@H](C)[C@H](NCCCC#N)[C@H](C)[C@@H](O)[C@]1(C)O` [Compound 29, 9-Deoxo-9-[(3-cyanopropyl)amino]erythromycin], the ED50 with Staphylococcus aureus (po, read-out: Oral ED50) amounted to 36.1 mg/kg; with Streptococcus pneumoniae (po, read-out: Oral ED50), 28.7 mg/kg; with Streptococcus pyogenes (po, read-out: Oral ED50) it was 21.1 mg/kg.

With `CC[C@H]1OC(=O)[C@H](C)[C@@H](O[C@H]2C[C@@](C)(OC)[C@@H](O)[C@H](C)O2)[C@H](C)[C@@H](O[C@@H]2O[C@H](C)C[C@H](N(C)C)[C@H]2O)[C@](C)(O)C[C@@H](C)[C@H](NCCC2=C(C)CCCC2(C)C)[C@H](C)[C@@H](O)[C@]1(C)O` [Compound 30, 9-Deoxo-9-[[2-(2,6,6-trimethyl-1-cyclohexen-1-yl)ethyl]amino]erythromycin], the ED50 in the test on Staphylococcus aureus (po, read-out: Oral ED50) was above 50 mg/kg; in the test on Streptococcus pneumoniae (po, read-out: Oral ED50) it was above 50 mg/kg; with Streptococcus pyogenes (po, read-out: Oral ED50) it was above 50 mg/kg.

As to `CC[C@H]1OC(=O)[C@H](C)[C@@H](O[C@H]2C[C@@](C)(OC)[C@@H](O)[C@H](C)O2)[C@H](C)[C@@H](O[C@@H]2O[C@H](C)C[C@H](N(C)C)[C@H]2O)[C@](C)(O)C[C@@H](C)[C@H](NCCOC)[C@H](C)[C@@H](O)[C@]1(C)O` [Compound 31, 9-Deoxo-9-[(2-Methoxyethyl)amino]erythromycin], the ED50 in the test with Staphylococcus aureus (po, read-out: Oral ED50) turned out to be 35.2 mg/kg; in the test on Staphylococcus aureus (setting [1]) it was 2.5 mg/kg; with Streptococcus pneumoniae (po, read-out: Oral ED50), 18.7 mg/kg; in the test on Streptococcus pneumoniae (setting [1]) it was 3.3 mg/kg; in the test on Streptococcus pyogenes (po, read-out: Oral ED50), 16.3 mg/kg; in the test with Streptococcus pyogenes (setting [1]), 2.1 mg/kg.

As for `CCCN[C@@H]1[C@H](C)[C@@H](O)[C@@H](C)[C@@H](CC)OC(=O)[C@H](C)[C@@H](O[C@H]2C[C@@](C)(OC)[C@@H](O)[C@H](C)O2)[C@H](C)[C@@H](O[C@@H]2O[C@H](C)C[C@H](N(C)C)[C@H]2O)[C@](C)(O)C[C@H]1C` [Compound 38], the ED50 with Staphylococcus aureus (po, read-out: Oral ED50) is 41 mg/kg; in the test on Streptococcus pneumoniae (po, read-out: Oral ED50), 50 mg/kg; with Streptococcus pyogenes (po, read-out: Oral ED50), 20.6 mg/kg.

Turning to `CCCCCCCCCCN[C@@H]1[C@H](C)[C@@H](O)[C@@H](C)[C@@H](CC)OC(=O)[C@H](C)[C@@H](O[C@H]2C[C@@](C)(OC)[C@@H](O)[C@H](C)O2)[C@H](C)[C@@H](O[C@@H]2O[C@H](C)C[C@H](N(C)C)[C@H]2O)[C@](C)(O)C[C@H]1C` [Compound 41], the ED50 is above 50 mg/kg with Staphylococcus aureus (po, read-out: Oral ED50); above 50 mg/kg in the test on Streptococcus pneumoniae (po, read-out: Oral ED50); above 50 mg/kg in the test with Streptococcus pyogenes (po, read-out: Oral ED50).

With `CC[C@H]1OC(=O)[C@H](C)[C@@H](O[C@H]2C[C@@](C)(OC)[C@@H](O)[C@H](C)O2)[C@H](C)[C@@H](O[C@@H]2O[C@H](C)C[C@H](N(C)C)[C@H]2O)[C@](C)(O)C[C@@H](C)[C@H](NCCOCCOC)[C@H](C)[C@@H](O)[C@H]1C` [Compound 49], the ED50 is above 50 mg/kg in the test with Staphylococcus aureus (po, read-out: Oral ED50); above 56 mg/kg in the test on Streptococcus pneumoniae (po, read-out: Oral ED50); 40.9 mg/kg in the test with Streptococcus pyogenes (po, read-out: Oral ED50).

Broadly, the ED50 is the dose at which the effect has come halfway, by size or by number of responders.
